Results reported in publication PMC11374673, “Discovery of isoquinoline sulfonamides as allosteric gyrase inhibitors with activity against fluoroquinolone-resistant bacteria” (Nature Chemistry, 2024).
≈ marks a conversion by molar mass, not a printed value. Where “and” joins values, the source holds several entries; their conditions need not be identical. Identical values can stand only once. Like-named read-outs stand apart in the source and are kept apart here.

Key:
[1] = test system: K. pneumoniae ATCC 29665; experiment: MIC by broth microdilution; type: cell-based, Klebsiella pneumoniae; conditions: Klebsiella pneumoniae, ATCC29665, broth microdilution; read-out: MIC K. pneumoniae ATCC 29665
Procedure: (§1) MIC was determined by broth microdilution. Single-colony cultures were grown to exponential phase (OD600 of 0.5) aerobically at 37 °C. In case of strains from the Keio collection, 50 µg ml^−1 kanamycin was supplemented to the media to ascertain a homogeneous population. The bacterial suspensions were diluted 100-fold in CAMHB and 50 µl was added to a twofold serial dilution series of test compounds (50 µl per well) in polypropylene 96-well microtitre plates to reach a volume of 100 µl. The plates were sealed with breathable membranes and incubated overnight at 37 °C with constant shaking (600 r.p.m.).

[2] = test system: HepG2; experiment: Cytotoxicity assay (MTT); type: cell-based, human; conditions: for IC50: Homo sapiens, HepG2, 24 h, MTT, 24 h
Procedure: (§2) HepG2 (ATCC HB-8065) and HEK293T (ATCC CRL-3216) cell lines were cultured at 37 °C and 7% CO2 in Dulbecco’s modified Eagle medium (Sigma-Aldrich, D6546) with GlutaMax, penicillin (100 µg ml^−1), streptomycin (100 µg ml^−1) and 10% fetal calf serum. Cells were passaged twice a week by first detaching using 0.05% trypsin in phosphate-buffered saline (PBS) and then diluting to appropriate confluence. Compound cytotoxicity was evaluated using the standard (3-(4,5-dimethylthiazol-2-yl)-2,5-diphenyltetrazolium bromide (MTT) assay protocol (MTT assay protocol for cell viability and proliferation, Merck) with slight changes. HepG2 and HEK293T cells were seeded at a density of 1.5 × 10^4 cells per well in a clear 96-well tissue culture treated plate in a final volume of 100 µl in Dulbecco’s modified Eagle medium, supplemented with fetal bovine serum (1%), GlutaMax and penicillin/streptomycin. Cells were incubated for 24 h at 37 °C, 7% CO2 to allow cells to attach to the plates. […] Incubation was done for 24 h at 37 °C, 7% CO2. After the incubation, MTT was added to each well at a final concentration of 0.40 mg ml^−1. The plates were then incubated for 2 h at 37 °C, 7% CO2. Medium was carefully removed via suction, and purple formazan crystals were resuspended in 100 µl DMSO. Absorbance was read at 570 nm using a Clariostar plate reader with MARS (V4.20). The data were then analysed with GraphPad Prism software. IC50 values were calculated using non-linear fitted curve with variable slope settings, with values adjusted for background (plotted absorbance (ABS)sample = (ABSsample – ABSbackground) / (ABSvehicle – ABSbackground)). Technical triplicates for each condition were used, along with biological duplicates.

[3] = test system: HEK293T; experiment: Cytotoxicity assay (MTT); type: cell-based, human; conditions: for MTT data (raw readout): HEK293T; for IC50: 24 h, MTT
Procedure: as §2

[4] = test system: E. coli W3110; experiment: MIC by broth microdilution; type: cell-based, Escherichia coli; conditions: for MIC: broth microdilution, read-out: MIC E. coli W3110
Procedure: as §1

[5] = HepG2, 0.023 uM, experiment n = 1, technical triplicates
[6] = HepG2, 0.023 uM, experiment n = 2, technical triplicates
[7] = HepG2, 0.068 uM, experiment n = 1, technical triplicates
[8] = HepG2, 0.068 uM, experiment n = 2, technical triplicates
[9] = HepG2, 0.21 uM, experiment n = 1, technical triplicates
[10] = HepG2, 0.21 uM, experiment n = 2, technical triplicates
[11] = HepG2, 0.62 uM, experiment n = 1, technical triplicates
[12] = HepG2, 0.62 uM, experiment n = 2, technical triplicates
[13] = HepG2, 1.85 uM, experiment n = 1, technical triplicates
[14] = HepG2, 1.85 uM, experiment n = 2, technical triplicates
[15] = 0.023 uM, experiment n = 1, technical triplicates
[16] = 0.023 uM, experiment n = 2, technical triplicates
[17] = 0.068 uM, experiment n = 1, technical triplicates
[18] = 0.068 uM, experiment n = 2, technical triplicates
[19] = 0.21 uM, experiment n = 1, technical triplicates
[20] = 0.21 uM, experiment n = 2, technical triplicates
[21] = 0.62 uM, experiment n = 1, technical triplicates
[22] = 0.62 uM, experiment n = 2, technical triplicates
[23] = 1.85 uM, experiment n = 1, technical triplicates
[24] = 1.85 uM, experiment n = 2, technical triplicates
[25] = 5.6 uM, experiment n = 1, technical triplicates
[26] = 5.6 uM, experiment n = 2, technical triplicates
[27] = 16.7 uM, experiment n = 1, technical triplicates
[28] = 50 uM, experiment n = 1, technical triplicates
[29] = 50 uM, experiment n = 2, technical triplicates

Row | MIC [1] [µM] | SMILES | MTT data (raw readout) [2, 5] | MTT data (raw readout) [2, 6] | MTT data (raw readout) [2, 7] | MTT data (raw readout) [2, 8] | MTT data (raw readout) [2, 9] | MTT data (raw readout) [2, 10] | MTT data (raw readout) [2, 11] | MTT data (raw readout) [2, 12] | MTT data (raw readout) [2, 13] | MTT data (raw readout) [2, 14] | IC50 [2] [nM] | MTT data (raw readout) [3, 15] | MTT data (raw readout) [3, 16] | MTT data (raw readout) [3, 17] | MTT data (raw readout) [3, 18] | MTT data (raw readout) [3, 19] | MTT data (raw readout) [3, 20] | MTT data (raw readout) [3, 21] | MTT data (raw readout) [3, 22] | further results
1 | 6.25 (≈ 2.77 µg/mL) | O=S(=O)(NC[C@@H]1CC[C@H](c2ccc(-c3ccccc3)cc2)N1)c1cccc2cnccc12 [Compound 100] | 0.333 and 0.336 and 0.361 | 0.317 and 0.327 and 0.342 | 0.444 and 0.395 and 0.393 | 0.444 and 0.405 and 0.418 | 0.321 and 0.295 and 0.307 | 0.315 and 0.286 and 0.293 | 0.316 and 0.335 and 0.382 | 0.313 and 0.317 and 0.366 | 0.377 and 0.346 and 0.368 | 0.307 and 0.264 and 0.317 | 37000 | 1.435 and 1.455 and 1.506 | 1.022 and 0.970 and 0.963 | 1.260 and 1.443 and 1.546 | 1.032 and 0.974 and 0.962 | 1.440 and 1.428 and 1.427 | 1.023 and 0.943 and 0.880 | 1.304 and 1.414 and 1.203 | 0.795 and 0.796 and 0.802 | MTT data (raw readout) ([2]; HepG2, 5.6 uM, experiment n = 1, technical triplicates): 0.341 and 0.333 and 0.345; MTT data (raw readout) ([2]; HepG2, 5.6 uM, experiment n = 2, technical triplicates): 0.271 and 0.300 and 0.310; MTT data (raw readout) ([2]; HepG2, 16.7 uM, experiment n = 1, technical triplicates): 0.345 and 0.363 and 0.356; MTT data (raw readout) ([2]; HepG2, 16.7 uM, experiment n = 2, technical triplicates): 0.277 and 0.308 and 0.357; MTT data (raw readout) ([2]; HepG2, 50 uM, experiment n = 1, technical triplicates): 0.236 and 0.222 and 0.339; MTT data (raw readout) ([2]; HepG2, 50 uM, experiment n = 2, technical triplicates): 0.109 and 0.122 and 0.118; cytotoxicity ([3]; HEK293T and HepG2): substantial cytotoxicity; MTT data (raw readout) [3, 23]: 0.892 and 0.934 and 1.008; MTT data (raw readout) [3, 24]: 0.653 and 0.625 and 0.564; MTT data (raw readout) [3, 25]: 0.787 and 0.844 and 0.842; MTT data (raw readout) [3, 26]: 0.528 and 0.470 and 0.496; MTT data (raw readout) [3, 27]: 0.654 and 0.620 and 0.622; MTT data (raw readout) ([3]; 16.7 uM, experiment n = 2, technical triplicates): 0.433 and 0.475 and 0.464; MTT data (raw readout) [3, 28]: 0.419 and 0.461 and 0.443; MTT data (raw readout) [3, 29]: 0.271 and 0.254 and 0.252; IC50 ([3]; Homo sapiens, HEK-293T): 8100 nM; MIC ([4]; Escherichia coli, W3110, WT): 1.6 µM (≈ 0.71 µg/mL)
2 | 6.25 (≈ 2.72 µg/mL) | O=S(=O)(NCCNCc1ccc(-c2ccc(F)cc2)cc1)c1cccc2cnccc12 [Compound 59] | 1.000 and 0.992 and 0.989 | 0.854 and 0.789 and 0.774 | 0.940 and 0.990 and 0.945 | 0.876 and 0.808 and 0.777 | 0.977 and 1.029 and 0.973 | 0.822 and 0.816 and 0.771 | 0.952 and 1.030 and 0.967 | 0.836 and 0.820 and 0.813 | 0.913 and 0.914 and 0.948 | 0.795 and 0.749 and 0.743 | 1700 | 1.333 and 1.279 and 1.355 | 1.390 and 1.481 and 1.407 | 1.383 and 1.359 | 1.383 and 1.292 and 1.538 | 1.318 and 1.351 and 1.256 | 1.291 and 1.248 and 1.339 | 1.028 and 1.043 and 1.203 | 1.142 and 1.303 and 1.183 | MTT data (raw readout) [3, 23]: 0.845 and 0.882 and 0.691; MTT data (raw readout) [3, 24]: 0.871 and 0.885 and 0.773; MTT data (raw readout) [3, 25]: 0.197 and 0.226 and 0.189; MTT data (raw readout) [3, 26]: 0.227 and 0.205 and 0.278; MTT data (raw readout) [3, 27]: 0.068 and 0.048 and 0.059; MTT data (raw readout) [3, 28]: 0.036 and 0.035 and 0.032; MTT data (raw readout) [3, 29]: 0.032 and 0.034 and 0.028; IC50 ([3]; Homo sapiens, HEK-293T): 1700 nM; IC50 [3]: 2600 nM; MIC ([4]; Escherichia coli, W3110, WT): 3.1 µM (≈ 1.35 µg/mL); MIC ([4]; WT): 3.125 µM (≈ 1.36 µg/mL); antimicrobial activity ([4]; relative to parent compound): twofold increase in potency
